{"source": "patent US12065404B2", "about": "“C4-carboxylic acid-substituted tryptamine derivatives and methods of using” (priority 2022, dated 2024)", "key": {"5-HT1A receptor": {"biological_target": "T1, 5-HT1A receptor (Homo sapiens, UniProt P08908)", "T1 construct": "host or cells: CHO-K1 (co-expressing Ga15)", "T1 sequence (P08908 1-422)": "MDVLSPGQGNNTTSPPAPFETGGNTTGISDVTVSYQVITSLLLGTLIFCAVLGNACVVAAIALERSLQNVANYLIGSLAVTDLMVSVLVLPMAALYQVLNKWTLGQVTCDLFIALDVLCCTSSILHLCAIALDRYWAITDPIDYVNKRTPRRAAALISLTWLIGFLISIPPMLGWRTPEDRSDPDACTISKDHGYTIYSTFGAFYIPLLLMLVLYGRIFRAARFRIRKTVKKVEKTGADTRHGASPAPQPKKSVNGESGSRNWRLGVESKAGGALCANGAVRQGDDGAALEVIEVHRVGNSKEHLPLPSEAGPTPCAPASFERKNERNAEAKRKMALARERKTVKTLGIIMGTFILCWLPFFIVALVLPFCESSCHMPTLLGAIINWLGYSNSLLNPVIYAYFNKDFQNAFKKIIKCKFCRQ", "assay": "cAMP-Glo assay of 5-HT1A receptor modulation, +5-HT1A (CHO-K1/5-HT1A/Ga15) vs -5-HT1A (CHO-K1/Ga15) cells", "format": "cell-based", "parameters": "dose or concentration left out as unconfirmed", "conditions": "+5-HT1A vs -5-HT1A cell cultures stimulated with forskolin, increasing ligand concentrations"}, "[1]": {"biological_target": "T2, neuronal 5-HT2A receptor (5-HT2AR) (Mus musculus, UniProt P35363)", "T2 construct": "HTR was measured in mice treated with a control and test compounds; tissue Charles River; host or cells: live C57BL/6-Elite mice (neuronal receptor)", "T2 sequence (P35363 whole entry)": "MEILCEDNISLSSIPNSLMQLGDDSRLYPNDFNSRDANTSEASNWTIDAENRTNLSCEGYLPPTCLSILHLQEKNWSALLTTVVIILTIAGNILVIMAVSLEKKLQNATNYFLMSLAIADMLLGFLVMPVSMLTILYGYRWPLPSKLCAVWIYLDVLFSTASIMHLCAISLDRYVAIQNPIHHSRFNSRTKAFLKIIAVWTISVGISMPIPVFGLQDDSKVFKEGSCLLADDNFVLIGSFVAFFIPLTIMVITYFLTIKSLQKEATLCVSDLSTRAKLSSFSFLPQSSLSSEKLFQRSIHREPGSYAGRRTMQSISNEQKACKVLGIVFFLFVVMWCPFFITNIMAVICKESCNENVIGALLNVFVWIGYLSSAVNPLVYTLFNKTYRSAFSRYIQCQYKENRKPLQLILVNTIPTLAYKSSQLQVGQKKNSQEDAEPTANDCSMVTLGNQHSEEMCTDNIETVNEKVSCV", "assay": "Drug-induced Head Twitch Response (HTR) in mice", "format": "in vivo, C57BL/6-Elite mice", "conditions": "1 mg/kg i.p., 15-to-30-minute window post-drug, relative to vehicle-treated control mice"}, "[2]": {"assay": "Mouse pharmacokinetic (PK) study, parent compound and psilocin metabolite in plasma", "format": "in vivo, C57Bl/6 mice", "conditions": "for F(%) / F(%), M37 considered as an outlier: AUC0-tlast used for p.o. group; for F(%): value might be under-estimated; for F(%), M37 considered as an outlier: i.v. animal M37 considered an outlier", "description": "Briefly, the procedure was as follows. […] 19, 2022."}, "[3]": {"conditions": "1 mg/kg i.v. C(I), 6 h, individual animals"}, "[4]": {"conditions": "1 mg/kg i.v. C(I), 8 h, individual animals"}, "[5]": {"conditions": "1 mg/kg oral C(I), 8 h, individual animals"}, "[6]": {"conditions": "1 mg/kg oral C(I), 24 h, individual animals"}, "[7]": {"conditions": "1 mg/kg oral, individual animals"}, "[8]": {"conditions": "3 mg/kg oral C(I), 24 h, individual animals"}, "[9]": {"conditions": "3 mg/kg oral, individual animals"}, "[10]": {"conditions": "10 mg/kg oral C(I), 24 h, individual animals"}}, "note": "Values joined by “and” are separate entries in the source; they are usually repeats but may differ in a detail not shown here. Equal entries are not always repeated. “Also recorded” adds a separate entry of the source."}
{"smiles": "CN(C)CCc1c[nH]c2cccc(OC(=O)c3ccc(Br)cc3)c12", "note": "[C(I)]", "values": [{"measurement": "5-HT1A receptor modulation (reduction of cAMP levels)", "setting": "5-HT1A receptor", "result": "mild receptor modulation at higher ligand concentrations"}, {"measurement": "Incidences of Head Twitch Response (HTR)", "setting": "[1]", "result": "Elevated incidences of HTR"}, {"measurement": "Plasma concentration of C(I)", "setting": "[2]; 1 mg/kg i.v. C(I), 5 min, individual animals", "result": "2620 ng/mL and 118 ng/mL and 94.4 ng/mL"}, {"measurement": "Plasma concentration of C(I)", "setting": "[2]; 1 mg/kg i.v. C(I), 0.25 h, individual animals", "result": "1250 ng/mL and 58.5 ng/mL and 48.2 ng/mL"}, {"measurement": "Plasma concentration of C(I)", "setting": "[2]; 1 mg/kg i.v. C(I), 0.5 h, individual animals", "result": "348 ng/mL and 33.4 ng/mL and 30.4 ng/mL"}, {"measurement": "Plasma concentration of C(I)", "setting": "[2]; 1 mg/kg i.v. C(I), 1 h, individual animals", "result": "128 ng/mL and 17.9 ng/mL and 13.8 ng/mL"}, {"measurement": "Plasma concentration of C(I)", "setting": "[2]; 1 mg/kg i.v. C(I), 2 h, individual animals", "result": "52.8 ng/mL and 3.61 ng/mL and 3.40 ng/mL"}, {"measurement": "Plasma concentration of C(I)", "setting": "[2]; 1 mg/kg i.v. C(I), 4 h, individual animals", "result": "8.88 ng/mL and 0.984 ng/mL and 0.509 ng/mL"}, {"measurement": "Plasma concentration of C(I)", "setting": "[2]; [3]", "result": "4.65 ng/mL and 0.363 ng/mL and BLQ (BLQ denotes below the lower limit of quantitation (0.5 ng/mL).)"}, {"measurement": "Plasma concentration of psilocin", "setting": "[2]; [3]", "result": "BLQ (BLQ denotes below the lower limit of quantitation (0.2 ng/ml).)"}, {"measurement": "Plasma concentration of C(I)", "setting": "[2]; [4]", "result": "BLQ (BLQ denotes below the lower limit of quantitation (0.5 ng/mL).); also recorded: No Peak"}, {"measurement": "Plasma concentration of psilocin", "setting": "[2]; [4]", "result": "BLQ (BLQ denotes below the lower limit of quantitation (0.2 ng/ml).)"}, {"measurement": "Plasma concentration of C(I)", "setting": "[2]; 1 mg/kg oral C(I), 0.25 h, individual animals", "result": "0.617 ng/mL and 0.410 ng/mL and 0.910 ng/mL"}, {"measurement": "Plasma concentration of C(I)", "setting": "[2]; 1 mg/kg oral C(I), 0.5 h, individual animals", "result": "0.816 ng/mL and 0.535 ng/mL and 1.28 ng/mL"}, {"measurement": "Plasma concentration of C(I)", "setting": "[2]; 1 mg/kg oral C(I), 1 h, individual animals", "result": "BLQ (BLQ denotes below the lower limit of quantitation (0.5 ng/mL).) and 1.02 ng/mL"}, {"measurement": "Plasma concentration of C(I)", "setting": "[2]; 1 mg/kg oral C(I), 2 h, individual animals", "result": "BLQ (BLQ denotes below the lower limit of quantitation (0.5 ng/mL).) and 0.600 ng/mL"}, {"measurement": "Plasma concentration of C(I)", "setting": "[2]; 1 mg/kg oral C(I), 4 h, individual animals", "result": "BLQ (BLQ denotes below the lower limit of quantitation (0.5 ng/mL).)"}, {"measurement": "Plasma concentration of C(I)", "setting": "[2]; 1 mg/kg oral C(I), 6 h, individual animals", "result": "BLQ (BLQ denotes below the lower limit of quantitation (0.5 ng/mL).)"}, {"measurement": "Plasma concentration of C(I)", "setting": "[2]; [5]", "result": "BLQ (BLQ denotes below the lower limit of quantitation (0.5 ng/mL).)"}, {"measurement": "Plasma concentration of psilocin", "setting": "[2]; [5]", "result": "BLQ (BLQ denotes below the lower limit of quantitation (0.2 ng/ml).)"}, {"measurement": "Plasma concentration of C(I)", "setting": "[2]; [6]", "result": "No Peak and No (2×)"}, {"measurement": "Plasma concentration of psilocin", "setting": "[2]; [6]", "result": "No Peak; also recorded: BLQ (BLQ denotes below the lower limit of quantitation (0.2 ng/ml).)"}, {"measurement": "F(%)", "setting": "[2]; [7]", "result": "0.554% and 0.0450% and 0.465%"}, {"measurement": "F(%), M37 considered as an outlier", "setting": "[2]; [7]", "result": "3.59% and 0.291% and 3.01%"}, {"measurement": "F(%), M37 considered as an outlier", "setting": "[2]; 1 mg/kg oral, mean ± SD", "result": "2.30 ± 1.76% and 2.30%"}, {"measurement": "Plasma concentration of C(I)", "setting": "[2]; 3 mg/kg oral C(I), 0.25 h, individual animals", "result": "2.13 ng/mL and 2.34 ng/mL"}, {"measurement": "Plasma concentration of C(I)", "setting": "[2]; 3 mg/kg oral C(I), 0.5 h, individual animals", "result": "2.16 ng/mL and 1.99 ng/mL"}, {"measurement": "Plasma concentration of C(I)", "setting": "[2]; 3 mg/kg oral C(I), 1 h, individual animals", "result": "1.56 ng/mL and 1.33 ng/mL"}, {"measurement": "Plasma concentration of C(I)", "setting": "[2]; 3 mg/kg oral C(I), 2 h, individual animals", "result": "0.705 ng/mL and 0.720 ng/mL"}, {"measurement": "Plasma concentration of C(I)", "setting": "[2]; 3 mg/kg oral C(I), 4 h, individual animals", "result": "0.569 ng/mL and 0.873 ng/mL and 1.28 ng/mL"}, {"measurement": "Plasma concentration of C(I)", "setting": "[2]; 3 mg/kg oral C(I), 6 h, individual animals", "result": "0.310 ng/mL and 0.250 ng/mL"}, {"measurement": "Plasma concentration of C(I)", "setting": "[2]; 3 mg/kg oral C(I), 8 h, individual animals", "result": "BLQ (BLQ denotes below the lower limit of quantitation (0.5 ng/mL).)"}, {"measurement": "Plasma concentration of C(I)", "setting": "[2]; [8]", "result": "No Peak"}, {"measurement": "Plasma concentration of psilocin", "setting": "[2]; [8]", "result": "No Peak"}, {"measurement": "F(%)", "setting": "[2]; [9]", "result": "0.484% and 0.523%"}, {"measurement": "F(%), M37 considered as an outlier", "setting": "[2]; [9]", "result": "3.02% and 3.13% and 3.39%"}, {"measurement": "F(%), M37 considered as an outlier", "setting": "[2]; 3 mg/kg oral, mean ± SD", "result": "3.18 ± 0.189% and 3.18%"}, {"measurement": "Plasma concentration of C(I)", "setting": "[2]; 10 mg/kg oral C(I), 0.25 h, individual animals", "result": "3.73 ng/mL and 6.07 ng/mL"}, {"measurement": "Plasma concentration of C(I)", "setting": "[2]; 10 mg/kg oral C(I), 0.5 h, individual animals", "result": "7.10 ng/mL and 10.9 ng/mL"}, {"measurement": "Plasma concentration of C(I)", "setting": "[2]; 10 mg/kg oral C(I), 1 h, individual animals", "result": "5.29 ng/mL and 7.46 ng/mL"}, {"measurement": "Plasma concentration of C(I)", "setting": "[2]; 10 mg/kg oral C(I), 2 h, individual animals", "result": "2.51 ng/mL and 1.47 ng/mL and 3.80 ng/mL"}, {"measurement": "Plasma concentration of C(I)", "setting": "[2]; 10 mg/kg oral C(I), 4 h, individual animals", "result": "2.06 ng/mL and 3.01 ng/mL"}, {"measurement": "Plasma concentration of C(I)", "setting": "[2]; 10 mg/kg oral C(I), 6 h, individual animals", "result": "1.18 ng/mL and 0.661 ng/mL"}, {"measurement": "Plasma concentration of C(I)", "setting": "[2]; 10 mg/kg oral C(I), 8 h, individual animals", "result": "0.253 ng/mL and 1.10 ng/mL and 0.283 ng/mL"}, {"measurement": "Plasma concentration of C(I)", "setting": "[2]; [10]", "result": "No (2×) and No Peak"}, {"measurement": "Plasma concentration of psilocin", "setting": "[2]; [10]", "result": "BLQ (BLQ denotes below the lower limit of quantitation (0.2 ng/ml).)"}, {"measurement": "F(%), M37 considered as an outlier", "setting": "[2]; 10 mg/kg oral, individual animals", "result": "2.71% and 2.90% and 4.06%"}]}
